ChEMBL document CHEMBL3124876, “A perylene derivative regulates HIF-1α and Stat3 signaling pathways” (Bioorg Med Chem, 2014)
Activity calls are given as the source filed them. The rule behind the calls is not given here.

Columns and labels:
[1] = biological target: Proto-oncogene tyrosine-protein kinase Src (Homo sapiens) (UniProt P12931); test: Inhibition of […] phosphorylation in human MDA-MB-231 cells at 0.05 to 10 uM by Western blotting analysis; type: cell-based
[2] = biological target: Tyrosine-protein kinase JAK2 (Homo sapiens) (UniProt O60674); test: Inhibition of JAK2 phosphorylation in human MDA-MB-231 cells at 0.05 to 10 uM by Western blotting analysis; type: cell-based
Tyrosine-protein kinase JAK2 (Homo sapiens), sequence (O60674 whole entry): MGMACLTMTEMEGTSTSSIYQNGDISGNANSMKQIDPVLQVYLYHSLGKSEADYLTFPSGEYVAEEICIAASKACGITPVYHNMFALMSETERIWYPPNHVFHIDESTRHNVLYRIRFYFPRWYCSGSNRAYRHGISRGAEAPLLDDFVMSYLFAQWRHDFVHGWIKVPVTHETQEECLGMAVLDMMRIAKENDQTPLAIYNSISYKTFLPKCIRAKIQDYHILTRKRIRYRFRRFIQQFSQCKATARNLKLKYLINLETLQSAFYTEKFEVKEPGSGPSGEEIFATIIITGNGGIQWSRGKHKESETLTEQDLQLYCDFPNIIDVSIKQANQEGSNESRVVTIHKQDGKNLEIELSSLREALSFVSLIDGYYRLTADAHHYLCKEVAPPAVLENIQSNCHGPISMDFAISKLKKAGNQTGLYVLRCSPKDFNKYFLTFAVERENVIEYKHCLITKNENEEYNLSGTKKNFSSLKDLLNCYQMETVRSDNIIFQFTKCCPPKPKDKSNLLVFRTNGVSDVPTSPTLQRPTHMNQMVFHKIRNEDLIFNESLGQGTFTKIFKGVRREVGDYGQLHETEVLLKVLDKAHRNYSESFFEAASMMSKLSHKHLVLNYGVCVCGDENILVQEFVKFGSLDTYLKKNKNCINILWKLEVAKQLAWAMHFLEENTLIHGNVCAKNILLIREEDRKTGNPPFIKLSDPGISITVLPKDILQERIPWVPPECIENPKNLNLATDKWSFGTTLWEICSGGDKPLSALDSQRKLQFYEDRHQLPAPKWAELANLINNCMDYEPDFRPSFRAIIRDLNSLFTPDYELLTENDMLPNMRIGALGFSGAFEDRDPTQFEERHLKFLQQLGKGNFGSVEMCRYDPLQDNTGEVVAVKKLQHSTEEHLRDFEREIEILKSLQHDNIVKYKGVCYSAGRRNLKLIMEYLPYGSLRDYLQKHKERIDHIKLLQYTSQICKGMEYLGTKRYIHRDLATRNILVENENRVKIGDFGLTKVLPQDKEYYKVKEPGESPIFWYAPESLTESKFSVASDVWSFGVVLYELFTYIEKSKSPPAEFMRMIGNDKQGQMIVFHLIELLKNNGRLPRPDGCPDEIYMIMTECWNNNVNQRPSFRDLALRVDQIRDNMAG

[3] = biological target: Histone acetyltransferase p300 (Homo sapiens) (UniProt Q09472); test: Inhibition of P300 in human MDA-MB-468 cells at 1 to 20 uM by Western blotting analysis; type: cell-based
[4] = biological target: Histone acetyltransferase p300 (Homo sapiens) (UniProt Q09472); test: Inhibition of P300 in human MDA-MB-231 cells at 1 to 20 uM by Western blotting analysis; type: cell-based
[5] = test system: OVCAR-3; test: Reduction of total Stat3 level in human OVCAR3 cells at 1 to 20 uM by Western blotting analysis; type: functional, cell-based
[6] = biological target: Endothelial PAS domain-containing protein 1 (Homo sapiens) (UniProt Q99814); test: Inhibition of HIF-2 alpha in human OVCAR3 cells at 1 to 20 uM by Western blotting analysis in hypoxia condition; type: cell-based; settings: OVCAR-3
Endothelial PAS domain-containing protein 1 (Homo sapiens), sequence (Q99814 whole entry, the tested form may be a part): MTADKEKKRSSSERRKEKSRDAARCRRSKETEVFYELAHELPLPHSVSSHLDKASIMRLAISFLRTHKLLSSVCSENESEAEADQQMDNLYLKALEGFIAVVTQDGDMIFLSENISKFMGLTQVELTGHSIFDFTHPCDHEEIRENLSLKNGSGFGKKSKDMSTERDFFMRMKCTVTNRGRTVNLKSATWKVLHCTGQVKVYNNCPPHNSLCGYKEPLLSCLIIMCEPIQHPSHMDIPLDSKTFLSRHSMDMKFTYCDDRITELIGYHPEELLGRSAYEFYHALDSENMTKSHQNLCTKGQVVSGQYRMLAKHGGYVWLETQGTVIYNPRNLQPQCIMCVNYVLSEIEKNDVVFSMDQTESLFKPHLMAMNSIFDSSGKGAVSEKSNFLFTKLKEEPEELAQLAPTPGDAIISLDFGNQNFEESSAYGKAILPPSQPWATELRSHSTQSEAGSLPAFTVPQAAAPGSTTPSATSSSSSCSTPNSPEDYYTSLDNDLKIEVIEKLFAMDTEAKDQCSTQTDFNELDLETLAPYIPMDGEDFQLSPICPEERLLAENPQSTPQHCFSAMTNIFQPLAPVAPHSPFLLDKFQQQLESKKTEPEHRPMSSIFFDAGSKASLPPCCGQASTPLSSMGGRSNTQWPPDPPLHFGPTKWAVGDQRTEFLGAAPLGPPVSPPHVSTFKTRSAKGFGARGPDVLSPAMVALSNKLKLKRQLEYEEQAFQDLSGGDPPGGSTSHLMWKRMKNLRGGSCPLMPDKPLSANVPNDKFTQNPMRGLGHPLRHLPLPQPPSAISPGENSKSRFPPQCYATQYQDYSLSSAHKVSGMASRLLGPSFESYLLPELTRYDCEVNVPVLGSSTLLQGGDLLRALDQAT

[7] = biological target: Signal transducer and activator of transcription 3 (Homo sapiens) (UniProt P40763); test: Inhibition of Stat3 in human MDA-MB-231 cells assessed as inhibition of Stat3 phosphorylation at 10 uM after 18 hrs by Western blotting analysis; type: cell-based
Signal transducer and activator of transcription 3 (Homo sapiens), sequence (P40763 whole entry): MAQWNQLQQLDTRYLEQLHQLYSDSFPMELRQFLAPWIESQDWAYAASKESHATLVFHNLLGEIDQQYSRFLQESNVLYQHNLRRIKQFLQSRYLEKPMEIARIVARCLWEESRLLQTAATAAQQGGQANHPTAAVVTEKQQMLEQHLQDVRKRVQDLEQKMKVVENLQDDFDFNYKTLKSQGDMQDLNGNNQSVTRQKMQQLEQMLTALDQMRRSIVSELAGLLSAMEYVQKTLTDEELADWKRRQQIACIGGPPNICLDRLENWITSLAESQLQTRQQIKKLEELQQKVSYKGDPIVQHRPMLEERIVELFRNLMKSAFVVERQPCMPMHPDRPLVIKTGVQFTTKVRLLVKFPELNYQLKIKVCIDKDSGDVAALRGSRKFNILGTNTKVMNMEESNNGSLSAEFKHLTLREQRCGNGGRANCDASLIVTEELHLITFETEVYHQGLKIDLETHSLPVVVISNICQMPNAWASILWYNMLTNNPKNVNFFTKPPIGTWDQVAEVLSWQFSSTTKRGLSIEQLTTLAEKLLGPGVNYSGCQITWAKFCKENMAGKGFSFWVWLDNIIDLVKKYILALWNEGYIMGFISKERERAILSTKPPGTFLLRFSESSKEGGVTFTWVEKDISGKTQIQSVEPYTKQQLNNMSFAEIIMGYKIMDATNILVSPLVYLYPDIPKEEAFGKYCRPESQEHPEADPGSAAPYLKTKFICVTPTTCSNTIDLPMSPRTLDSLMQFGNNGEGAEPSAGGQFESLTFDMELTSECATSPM

[8] = test system: MDA-MB-231; test: Anticancer activity in human MDA-MB-231 cells assessed as reduction of total Stat3 level at 10 uM after 18 hrs by Western blotting analysis; type: functional, cell-based
[9] = test system: PANC-1; test: Antitumor activity against human PANC1 cells xenografted in Balb nu/nu mouse assessed as tumor regression at 2 mg/kg, ip administered every other day for 10 days measured after 19 days; type: functional, organism-based; set-up: dose 2 mg/kg
[10] = test system: MDA-MB-231; test: Antitumor activity against human MDA-MB-231 cells xenografted in Balb nu/nu mouse assessed as reduction in tumor growth at 5 mg/kg, po administered every other day for 10 days; type: functional, organism-based; set-up: dose 5 mg/kg
[11] = test system: MDA-MB-231; test: Induction of apoptosis in human MDA-MB-231 cells assessed as reduction in cell viability at 8 uM after 12 to 48 hrs by MTT assay; type: functional, cell-based
[12] = test system: MDA-MB-468; test: Induction of apoptosis in human MDA-MB-468 cells assessed as reduction in cell viability at 8 uM after 12 to 48 hrs by MTT assay; type: functional, cell-based
[13] = test system: MDA-MB-231; test: Induction of apoptosis in human MDA-MB-231 cells assessed as reduction in cell viability at 1 to 10 uM by MTT assay; type: functional, cell-based
[14] = test system: MDA-MB-468; test: Induction of apoptosis in human MDA-MB-468 cells assessed as reduction in cell viability at 1 to 10 uM by MTT assay; type: functional, cell-based
[15] = test system: MCF7; test: Induction of apoptosis in human MCF7 cells assessed as reduction in cell viability at 10 uM after 12 to 48 hrs by MTT assay; type: functional, cell-based
[16] = organism: Homo sapiens; test: Inhibition of telomerase (unknown origin)
[17] = test system: MDA-MB-468; test: Inhibition of HIF-1 in human MDA-MB-468 cells assessed as reduction of VEGF mRNA expression at 5 to 10 uM by RT-PCR analysis in hypoxia condition; type: cell-based
[18] = biological target: Hypoxia-inducible factor 1-alpha (Homo sapiens) (UniProt Q16665); test: Inhibition of HIF-1 alpha in human MDA-MB-468 cells assessed as proteasomal degradation at 4 to 7 uM after 18 hrs by immunoblotting analysis in hypoxia condition in presence of MG132; type: cell-based
Hypoxia-inducible factor 1-alpha (Homo sapiens), sequence (Q16665 whole entry, looked up): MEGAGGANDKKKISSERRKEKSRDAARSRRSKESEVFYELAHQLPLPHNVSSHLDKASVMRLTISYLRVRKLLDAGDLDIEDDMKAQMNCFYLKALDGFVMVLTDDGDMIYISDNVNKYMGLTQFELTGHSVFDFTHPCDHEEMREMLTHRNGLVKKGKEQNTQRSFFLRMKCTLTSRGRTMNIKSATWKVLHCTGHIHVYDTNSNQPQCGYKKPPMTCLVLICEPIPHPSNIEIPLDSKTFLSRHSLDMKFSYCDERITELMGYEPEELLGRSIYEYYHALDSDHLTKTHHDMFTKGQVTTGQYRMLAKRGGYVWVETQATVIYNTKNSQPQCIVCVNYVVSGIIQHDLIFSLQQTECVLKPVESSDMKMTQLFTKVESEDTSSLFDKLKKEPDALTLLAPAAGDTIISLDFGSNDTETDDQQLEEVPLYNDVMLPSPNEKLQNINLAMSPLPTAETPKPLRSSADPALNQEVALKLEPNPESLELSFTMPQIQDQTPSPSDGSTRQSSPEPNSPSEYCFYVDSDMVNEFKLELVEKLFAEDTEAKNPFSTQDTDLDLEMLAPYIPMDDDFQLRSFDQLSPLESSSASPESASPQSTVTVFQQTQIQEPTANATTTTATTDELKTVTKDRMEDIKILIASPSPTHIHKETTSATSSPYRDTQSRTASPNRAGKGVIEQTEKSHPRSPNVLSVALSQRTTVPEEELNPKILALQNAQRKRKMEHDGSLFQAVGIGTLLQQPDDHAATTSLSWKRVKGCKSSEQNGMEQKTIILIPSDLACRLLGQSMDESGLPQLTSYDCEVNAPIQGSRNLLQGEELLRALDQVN

[19] = biological target: Hypoxia-inducible factor 1-alpha (Homo sapiens) (UniProt Q16665); test: Inhibition of HIF-1 alpha in human MDA-MB-468 cells assessed as proteasomal degradation at 4 to 7 uM after 18 hrs by immunoblotting analysis in hypoxia condition; type: cell-based
[20] = biological target: Hypoxia-inducible factor 1-alpha (Homo sapiens) (UniProt Q16665); test: Inhibition of GST-tagged HIF-1 alpha (531 to 826) (unknown origin) expressed in Escherichia coli BL21(DE3) assessed as inhibition of GST-tagged HIF-1 alpha/p300 interaction at 5 ug after overnight incubation by pull down assay in hypoxia condition
[21] = biological target: Proto-oncogene tyrosine-protein kinase Src (Homo sapiens) (UniProt P12931); test: Inhibition of Src kinase (unknown origin) phosphorylation at 10 uM after 6 hrs by cell-based Western blotting analysis
[22] = biological target: Tyrosine-protein kinase JAK2 (Homo sapiens) (UniProt O60674); test: Inhibition of JAK2 (unknown origin) assessed as total JAK2 level at 10 uM after 6 hrs by cell-based Western blotting analysis
[23] = biological target: Tyrosine-protein kinase JAK2 (Homo sapiens) (UniProt O60674); test: Inhibition of JAK2 (unknown origin) phosphorylation at 10 uM after 6 hrs by cell-based Western blotting analysis
[24] = biological target: Aryl hydrocarbon receptor nuclear translocator (Homo sapiens) (UniProt P27540); test: Inhibition of HIF-1 beta in human PC3 cells after 18 hrs by Western blotting analysis in hypoxia condition; type: cell-based; settings: PC-3
Aryl hydrocarbon receptor nuclear translocator (Homo sapiens), sequence (P27540 whole entry, the tested form may be a part): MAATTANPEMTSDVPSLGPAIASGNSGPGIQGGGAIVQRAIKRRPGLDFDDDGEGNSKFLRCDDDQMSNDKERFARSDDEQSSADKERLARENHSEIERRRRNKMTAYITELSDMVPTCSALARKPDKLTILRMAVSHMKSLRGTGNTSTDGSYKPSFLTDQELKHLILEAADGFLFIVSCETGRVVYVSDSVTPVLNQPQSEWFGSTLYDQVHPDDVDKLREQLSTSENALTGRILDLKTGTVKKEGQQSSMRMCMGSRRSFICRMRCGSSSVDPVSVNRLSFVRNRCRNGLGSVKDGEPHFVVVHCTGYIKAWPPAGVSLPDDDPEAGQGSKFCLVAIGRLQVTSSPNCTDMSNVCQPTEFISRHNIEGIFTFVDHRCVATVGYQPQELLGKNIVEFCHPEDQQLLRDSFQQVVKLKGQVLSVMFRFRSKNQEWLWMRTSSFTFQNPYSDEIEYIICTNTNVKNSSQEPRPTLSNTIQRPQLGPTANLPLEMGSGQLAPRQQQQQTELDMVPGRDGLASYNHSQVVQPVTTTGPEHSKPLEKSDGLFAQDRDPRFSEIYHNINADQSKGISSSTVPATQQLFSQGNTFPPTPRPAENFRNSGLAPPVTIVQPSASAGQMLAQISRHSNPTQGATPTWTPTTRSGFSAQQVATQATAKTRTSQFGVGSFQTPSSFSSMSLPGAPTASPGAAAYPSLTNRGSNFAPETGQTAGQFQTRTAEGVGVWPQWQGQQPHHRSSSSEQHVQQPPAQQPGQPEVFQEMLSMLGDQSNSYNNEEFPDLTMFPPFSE

[25] = biological target: Endothelial PAS domain-containing protein 1 (Homo sapiens) (UniProt Q99814); test: Inhibition of HIF-2 alpha in human PC3 cells after 18 hrs by Western blotting analysis in hypoxia condition; type: cell-based; settings: PC-3
[26] = Reduction of HIF-1 alpha mRNA expression in human PANC1 cells at 5 to 10 uM by qRT-PCR analysis; type: functional, cell-based; settings: PANC-1
[27] = biological target: Hypoxia-inducible factor 1-alpha (Homo sapiens) (UniProt Q16665); test: Inhibition of HIF-1 alpha in human PANC1 cells after 18 hrs by Western blotting analysis in hypoxia condition in presence of T40214; type: cell-based; settings: PANC-1
[28] = test system: PANC-1; test: Inhibition of ERK phosphorylation in human PANC1 cells at 1 to 20 uM by Western blotting analysis; type: cell-based
[29] = biological target: Signal transducer and activator of transcription 3 (Homo sapiens) (UniProt P40763); settings: PANC-1, 1 to 20 uM
Description: Inhibition of Stat3 phosphorylation in human PANC1 cells assessed as inhibition of Bcl2 expression at 1 to 20 uM by Western blotting analysis in normoxia condition

[30] = biological target: Signal transducer and activator of transcription 3 (Homo sapiens) (UniProt P40763); settings: MDA-MB-468, 1 to 20 uM
Description: Inhibition of Stat3 phosphorylation in human MDA-MB-468 cells assessed as inhibition of Bcl2 expression at 1 to 20 uM by Western blotting analysis in normoxia condition

[31] = biological target: Signal transducer and activator of transcription 3 (Homo sapiens) (UniProt P40763); settings: PANC-1, 0.5 to 20 uM
Description: Inhibition of Stat3 phosphorylation in human PANC1 cells assessed as inhibition of Bcl2 expression at 0.5 to 20 uM by Western blotting analysis in hypoxia condition

[32] = biological target: Signal transducer and activator of transcription 3 (Homo sapiens) (UniProt P40763); settings: 10 uM
Description: Inhibition of STAT3 (unknown origin) phosphorylation at 10 uM after 30 mins by cell-based Western blotting analysis

Proto-oncogene tyrosine-protein kinase Src (Homo sapiens), sequence (P12931 2-536 limits assumed): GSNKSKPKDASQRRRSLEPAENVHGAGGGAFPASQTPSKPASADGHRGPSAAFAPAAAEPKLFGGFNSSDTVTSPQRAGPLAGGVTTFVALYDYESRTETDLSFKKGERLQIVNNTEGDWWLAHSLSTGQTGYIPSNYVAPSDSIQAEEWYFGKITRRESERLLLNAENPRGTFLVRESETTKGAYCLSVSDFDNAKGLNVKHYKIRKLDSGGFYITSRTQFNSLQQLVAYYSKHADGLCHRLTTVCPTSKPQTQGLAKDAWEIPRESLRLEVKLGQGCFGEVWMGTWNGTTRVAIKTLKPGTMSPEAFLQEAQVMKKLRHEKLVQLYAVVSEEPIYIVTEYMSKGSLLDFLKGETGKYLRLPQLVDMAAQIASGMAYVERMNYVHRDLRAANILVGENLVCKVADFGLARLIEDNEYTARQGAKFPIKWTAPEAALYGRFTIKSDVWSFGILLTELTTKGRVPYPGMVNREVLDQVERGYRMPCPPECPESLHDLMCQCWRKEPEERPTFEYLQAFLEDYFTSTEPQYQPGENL

In the case of CN(C)CCCN1C(=O)c2ccc3c4ccc5c6c(ccc(c7ccc(c2c37)C1=O)c64)C(=O)N(CCCN(C)C)C5=O, the inhibition [1] is reported as “inactive”, the inhibition [2] is reported as “inactive” and the inhibition [3] is reported as “inactive”. For the same compound, the inhibition [4] was “inactive”, the Activity [5] was “Active” and the inhibition [6] was “Active”. For the same compound, the inhibition [7] was “Active”, the Activity [8] was “inactive” and the Activity [9] was “Active”. The Activity [10] was “Active”, the Activity [11] was “Active” and the Activity [12] was “Active”. The Activity [13] was “Active”, the Activity [14] was “Active” and the Activity [15] was “Active”. For the same compound, the inhibition [16] was “Active”, the inhibition [17] was “Active” and the inhibition [18] was “Active”. For the same compound, the inhibition [19] was “Active”, the inhibition [20] was “Active” and the inhibition [21] was “inactive”. For the same compound, the inhibition [22] was “inactive”, the inhibition [23] was “inactive” and the inhibition [24] was “inactive”. For the same compound, the inhibition [25] was “Active”, the Activity [26] was “inactive” and the inhibition [27] was “Active”. For the same compound, the inhibition [28] was “inactive”, the inhibition [29] was “Active” and the inhibition [30] was “Active”. For the same compound, the inhibition [31] was “Active” and the inhibition [32] was “Active”.
